Measurements as given in ChEMBL document CHEMBL4396865, “Current advances of triazole alcohols derived from fluconazole: Design, in vitro and in silico studies” (2019).
Converted amounts (≈) assume the structure as drawn.

What was measured:
Type in all cases: functional
Candida parapsilosis = experiment: Antifungal activity against Candida parapsilosis after 24 hrs by NCCLS protocol based method; settings: Lodderomyces parapsilosis
Candida albicans = experiment: Antifungal activity against Candida albicans after 24 hrs by NCCLS protocol based method
Candida tropicalis = experiment: Antifungal activity against Candida tropicalis after 24 hrs by NCCLS protocol based method
Fonsecaea compacta = experiment: Antifungal activity against Fonsecaea compacta after 24 hrs by NCCLS protocol based method
Trichophyton rubrum = experiment: Antifungal activity against Trichophyton rubrum after 7 days by NCCLS protocol based method; settings: 168 h
Cryptococcus neoformans = experiment: Antifungal activity against Cryptococcus neoformans after 72 hrs by NCCLS protocol based method
Nannizzia gypsea = experiment: Antifungal activity against Microsporum gypseum after 7 days by NCCLS protocol based method; settings: 168 h

| Compound | MIC80 (Candida parapsilosis) [ng/mL] | MIC80 (Candida albicans) [ng/mL] | MIC80 (Candida tropicalis) [ng/mL] | MIC80 (Fonsecaea compacta) [ng/mL] | MIC80 (Trichophyton rubrum) [ng/mL] | MIC80 (Cryptococcus neoformans) [ng/mL] | MIC (Candida albicans) [ng/mL] | MIC (Candida tropicalis) [ng/mL] | MIC (Trichophyton rubrum) [ng/mL] | MIC (Cryptococcus neoformans) [ng/mL] | MIC (Nannizzia gypsea) [ng/mL] |
| --- | --- | --- | --- | --- | --- | --- | --- | --- | --- | --- | --- |
| O=C(OC1CCN(CC(O)(Cn2cncn2)c2ccc(F)cc2F)CC1)c1ccc(Cl)cc1Cl (configuration not stated) | 3.9 to 62.5 (≈ 7.63 to 122 nM) | 3.9 to 62.5 (≈ 7.63 to 122 nM) | 3.9 to 62.5 (≈ 7.63 to 122 nM) | 3.9 to 62.5 (≈ 7.63 to 122 nM) | 3.9 to 62.5 (≈ 7.63 to 122 nM) | 3.9 to 62.5 (≈ 7.63 to 122 nM) |  |  |  |  |  |
| O=C(OC1CCN(CC(O)(Cn2cncn2)c2ccc(F)cc2F)CC1)c1ccccc1Br (configuration not stated) | 3.9 to 62.5 (≈ 7.48 to 120 nM) | 3.9 to 62.5 (≈ 7.48 to 120 nM) | 3.9 to 62.5 (≈ 7.48 to 120 nM) | 3.9 to 62.5 (≈ 7.48 to 120 nM) | 3.9 to 62.5 (≈ 7.48 to 120 nM) | 3.9 to 62.5 (≈ 7.48 to 120 nM) |  |  |  |  |  |
| COc1ccc(C(=O)OC2CCN(CC(O)(Cn3cncn3)c3ccc(F)cc3F)CC2)cc1OC (configuration not stated) | 3.9 to 62.5 (≈ 7.76 to 124 nM) | 3.9 to 62.5 (≈ 7.76 to 124 nM) | 3.9 to 62.5 (≈ 7.76 to 124 nM) | 3.9 to 62.5 (≈ 7.76 to 124 nM) | 3.9 to 62.5 (≈ 7.76 to 124 nM) | 3.9 to 62.5 (≈ 7.76 to 124 nM) |  |  |  |  |  |
| CCCc1ccc(C(=O)OC2CCN(CC(O)(Cn3cncn3)c3ccc(F)cc3F)CC2)cc1 (configuration not stated) | 3.9 to 62.5 (≈ 8.05 to 129 nM) | 3.9 to 62.5 (≈ 8.05 to 129 nM) | 3.9 to 62.5 (≈ 8.05 to 129 nM) | 3.9 to 62.5 (≈ 8.05 to 129 nM) | 3.9 to 62.5 (≈ 8.05 to 129 nM) | 3.9 to 62.5 (≈ 8.05 to 129 nM) |  |  |  |  |  |
| O=C(OC1CCN(CC(O)(Cn2cncn2)c2ccc(F)cc2F)CC1)c1ccccc1F (configuration not stated) | 3.9 to 62.5 (≈ 8.47 to 136 nM) | 3.9 to 62.5 (≈ 8.47 to 136 nM) | 3.9 to 62.5 (≈ 8.47 to 136 nM) | 3.9 to 62.5 (≈ 8.47 to 136 nM) | 3.9 to 62.5 (≈ 8.47 to 136 nM) | 3.9 to 62.5 (≈ 8.47 to 136 nM) |  |  |  |  |  |
| CCCCCc1ccc(C(=O)OC2CCN(CC(O)(Cn3cncn3)c3ccc(F)cc3F)CC2)cc1 (configuration not stated) | 3.9 to 62.5 (≈ 7.61 to 122 nM) | 3.9 to 62.5 (≈ 7.61 to 122 nM) | 3.9 to 62.5 (≈ 7.61 to 122 nM) | 3.9 to 62.5 (≈ 7.61 to 122 nM) | 3.9 to 62.5 (≈ 7.61 to 122 nM) | 3.9 to 62.5 (≈ 7.61 to 122 nM) |  |  |  |  |  |
| O=C(OC1CCN(CC(O)(Cn2cncn2)c2ccc(F)cc2F)CC1)c1cccc(C(F)(F)F)c1 (configuration not stated) | 3.9 to 62.5 (≈ 7.64 to 122 nM) | 3.9 to 62.5 (≈ 7.64 to 122 nM) | 3.9 to 62.5 (≈ 7.64 to 122 nM) | 3.9 to 62.5 (≈ 7.64 to 122 nM) | 3.9 to 62.5 (≈ 7.64 to 122 nM) | 3.9 to 62.5 (≈ 7.64 to 122 nM) |  |  |  |  |  |
| O=C(OC1CCN(CC(O)(Cn2cncn2)c2ccc(F)cc2F)CC1)c1ccccc1I (configuration not stated) | 3.9 to 62.5 (≈ 6.86 to 110 nM) | 3.9 to 62.5 (≈ 6.86 to 110 nM) | 3.9 to 62.5 (≈ 6.86 to 110 nM) | 3.9 to 62.5 (≈ 6.86 to 110 nM) | 3.9 to 62.5 (≈ 6.86 to 110 nM) | 3.9 to 62.5 (≈ 6.86 to 110 nM) |  |  |  |  |  |
| COc1ccccc1C(=O)OC1CCN(CC(O)(Cn2cncn2)c2ccc(F)cc2F)CC1 (configuration not stated) | 3.9 to 62.5 (≈ 8.25 to 132 nM) | 3.9 to 62.5 (≈ 8.25 to 132 nM) | 3.9 to 62.5 (≈ 8.25 to 132 nM) | 3.9 to 62.5 (≈ 8.25 to 132 nM) | 3.9 to 62.5 (≈ 8.25 to 132 nM) | 3.9 to 62.5 (≈ 8.25 to 132 nM) |  |  |  |  |  |
| O=C(OC1CCN(CC(O)(Cn2cncn2)c2ccc(F)cc2F)CC1)c1ccc(Cl)cc1 (configuration not stated) | 3.9 to 62.5 (≈ 8.18 to 131 nM) | 3.9 to 62.5 (≈ 8.18 to 131 nM) | 3.9 to 62.5 (≈ 8.18 to 131 nM) | 3.9 to 62.5 (≈ 8.18 to 131 nM) | 3.9 to 62.5 (≈ 8.18 to 131 nM) | 3.9 to 62.5 (≈ 8.18 to 131 nM) |  |  |  |  |  |

More lines, now with the values ahead:

| MIC80 (Candida parapsilosis) [ng/mL] | MIC80 (Candida albicans) [ng/mL] | MIC80 (Candida tropicalis) [ng/mL] | MIC80 (Fonsecaea compacta) [ng/mL] | MIC80 (Trichophyton rubrum) [ng/mL] | MIC80 (Cryptococcus neoformans) [ng/mL] | MIC (Candida albicans) [ng/mL] | MIC (Candida tropicalis) [ng/mL] | MIC (Trichophyton rubrum) [ng/mL] | MIC (Cryptococcus neoformans) [ng/mL] | MIC (Nannizzia gypsea) [ng/mL] | Compound |
| --- | --- | --- | --- | --- | --- | --- | --- | --- | --- | --- | --- |
|  |  |  |  |  |  | 1 to 16 (≈ 2.38 to 38.1 nM) | 1 to 16 (≈ 2.38 to 38.1 nM) | 1 to 16 (≈ 2.38 to 38.1 nM) | 1 to 16 (≈ 2.38 to 38.1 nM) | 1 to 16 (≈ 2.38 to 38.1 nM) | CN(CCCOc1ccc(F)cc1)CC(O)(Cn1cncn1)c1ccc(F)cc1F (configuration not stated) |
| 3.9 to 62.5 (≈ 8.54 to 137 nM) | 3.9 to 62.5 (≈ 8.54 to 137 nM) | 3.9 to 62.5 (≈ 8.54 to 137 nM) | 3.9 to 62.5 (≈ 8.54 to 137 nM) | 3.9 to 62.5 (≈ 8.54 to 137 nM) | 3.9 to 62.5 (≈ 8.54 to 137 nM) |  |  |  |  |  | Cc1ccccc1C(=O)OC1CCN(CC(O)(Cn2cncn2)c2ccc(F)cc2F)CC1 (configuration not stated) |
|  |  |  |  |  |  | 1 to 16 (≈ 2.29 to 36.6 nM) | 1 to 16 (≈ 2.29 to 36.6 nM) | 1 to 16 (≈ 2.29 to 36.6 nM) | 1 to 16 (≈ 2.29 to 36.6 nM) | 1 to 16 (≈ 2.29 to 36.6 nM) | CN(CCCOc1ccccc1Cl)CC(O)(Cn1cncn1)c1ccc(F)cc1F (configuration not stated) |
|  |  |  |  |  |  | 1 (≈ 2.4 nM) | 1 (≈ 2.4 nM) | 1 (≈ 2.4 nM) | 1 (≈ 2.4 nM) | 1 (≈ 2.4 nM) | Cc1ccc(OCCCN(C)CC(O)(Cn2cncn2)c2ccc(F)cc2F)cc1 (configuration not stated) |
|  |  |  |  |  |  | 1 (≈ 2.4 nM) | 1 (≈ 2.4 nM) | 1 (≈ 2.4 nM) | 1 (≈ 2.4 nM) | 1 (≈ 2.4 nM) | Cc1cccc(OCCCN(C)CC(O)(Cn2cncn2)c2ccc(F)cc2F)c1 (configuration not stated) |
| 3.9 to 62.5 (≈ 8.54 to 137 nM) | 3.9 to 62.5 (≈ 8.54 to 137 nM) | 3.9 to 62.5 (≈ 8.54 to 137 nM) | 3.9 to 62.5 (≈ 8.54 to 137 nM) | 3.9 to 62.5 (≈ 8.54 to 137 nM) | 3.9 to 62.5 (≈ 8.54 to 137 nM) |  |  |  |  |  | Cc1cccc(C(=O)OC2CCN(CC(O)(Cn3cncn3)c3ccc(F)cc3F)CC2)c1 (configuration not stated) |
| 3.9 to 62.5 (≈ 8.25 to 132 nM) | 3.9 to 62.5 (≈ 8.25 to 132 nM) | 3.9 to 62.5 (≈ 8.25 to 132 nM) | 3.9 to 62.5 (≈ 8.25 to 132 nM) | 3.9 to 62.5 (≈ 8.25 to 132 nM) | 3.9 to 62.5 (≈ 8.25 to 132 nM) |  |  |  |  |  | COc1cccc(C(=O)OC2CCN(CC(O)(Cn3cncn3)c3ccc(F)cc3F)CC2)c1 (configuration not stated) |
| 3.9 to 62.5 (≈ 8.81 to 141 nM) | 3.9 to 62.5 (≈ 8.81 to 141 nM) | 3.9 to 62.5 (≈ 8.81 to 141 nM) | 3.9 to 62.5 (≈ 8.81 to 141 nM) | 3.9 to 62.5 (≈ 8.81 to 141 nM) | 3.9 to 62.5 (≈ 8.81 to 141 nM) |  |  |  |  |  | O=C(OC1CCN(CC(O)(Cn2cncn2)c2ccc(F)cc2F)CC1)c1ccccc1 (configuration not stated) |
| 3.9 to 62.5 (≈ 7.82 to 125 nM) | 3.9 to 62.5 (≈ 7.82 to 125 nM) | 3.9 to 62.5 (≈ 7.82 to 125 nM) | 3.9 to 62.5 (≈ 7.82 to 125 nM) | 3.9 to 62.5 (≈ 7.82 to 125 nM) | 3.9 to 62.5 (≈ 7.82 to 125 nM) |  |  |  |  |  | CCCCc1ccc(C(=O)OC2CCN(CC(O)(Cn3cncn3)c3ccc(F)cc3F)CC2)cc1 (configuration not stated) |
| 3.9 to 62.5 (≈ 8.29 to 133 nM) | 3.9 to 62.5 (≈ 8.29 to 133 nM) | 3.9 to 62.5 (≈ 8.29 to 133 nM) | 3.9 to 62.5 (≈ 8.29 to 133 nM) | 3.9 to 62.5 (≈ 8.29 to 133 nM) | 3.9 to 62.5 (≈ 8.29 to 133 nM) |  |  |  |  |  | Cc1ccc(C(=O)OC2CCN(CC(O)(Cn3cncn3)c3ccc(F)cc3F)CC2)c(C)c1 (configuration not stated) |
|  |  |  |  |  |  | 1 to 16 (≈ 2.23 to 35.8 nM) | 1 to 16 (≈ 2.23 to 35.8 nM) | 1 to 16 (≈ 2.23 to 35.8 nM) | 1 to 16 (≈ 2.23 to 35.8 nM) | 1 to 16 (≈ 2.23 to 35.8 nM) | CN(CCCOc1cccc([N+](=O)[O-])c1)CC(O)(Cn1cncn1)c1ccc(F)cc1F (configuration not stated) |
| 3.9 to 62.5 (≈ 8.18 to 131 nM) | 3.9 to 62.5 (≈ 8.18 to 131 nM) | 3.9 to 62.5 (≈ 8.18 to 131 nM) | 3.9 to 62.5 (≈ 8.18 to 131 nM) | 3.9 to 62.5 (≈ 8.18 to 131 nM) | 3.9 to 62.5 (≈ 8.18 to 131 nM) |  |  |  |  |  | O=C(OC1CCN(CC(O)(Cn2cncn2)c2ccc(F)cc2F)CC1)c1cccc(Cl)c1 (configuration not stated) |
|  |  |  |  |  |  | 1 (≈ 2.29 nM) | 1 (≈ 2.29 nM) | 1 (≈ 2.29 nM) | 1 (≈ 2.29 nM) | 1 (≈ 2.29 nM) | CN(CCCOc1ccc(Cl)cc1)CC(O)(Cn1cncn1)c1ccc(F)cc1F (configuration not stated) |
